Assay results reported in PMC3274548, “Toward New Therapeutics for Skin and Soft Tissue Infections: Propargyl-Linked Antifolates Are Potent Inhibitors of MRSA and Streptococcus pyogenes” (PLoS ONE, 2012).
Values after ≈ are worked out from the molar mass of the structure shown. Read-outs that look alike come from different tables or passages of the source.

Experiments:
MRSA (S.aureus 13709) = assay: MIC, broth microdilution with Alamar Blue; type: cell-based, Staphylococcus aureus; conditions: for Selectivity MRSA: IC50 (MCF10)/MIC (pathogen), both values in µM
Procedure: (§1) Stock solutions of standard antibiotics and test compounds were made at 50 mM in DMSO. […] For susceptibility testing, 10 µL of glycerol stock was suspended in a 10 mL shake flask culture of chemically defined Isosensitest broth (Oxoid) supplemented with 2% w/v glucose. A sample of the shake flask culture was diluted to 1×10^6 cells/mL in media and added to 96-well test plates (100 µL per well) containing test compounds dispensed in DMSO (2 µL) using serial two-fold dilutions. After an incubation period (30°C) determined from the strain specific doubling time, a 0.03% w/v aqueous solution of resazurin (10 µL) was added and the plates were allowed to incubate; each well was then scored for dye reduction.

MCF-10 cells = assay: Mammalian cell toxicity (Alamar Blue); type: cell-based; conditions: read-out: IC50 MCF-10
Procedure: Adherent cell lines were maintained in Eagle's Minimal Essential Media (Sigma-Aldrich, St. Louis, MO, USA) with 2 mM glutamine and Earle's Balanced Salt Solution (HyClone, Logan, UT, USA) adjusted to contain 1.5 g/L sodium bicarbonate, 0.1 mM non-essential amino acids, 1 mM sodium pyruvate and 10% fetal calf serum. Fetal calf serum used in these assays was lot matched throughout. […] Toxicity assays were conducted between passages 10–20. Target compound toxicity was measured by incubating the test compound with the cells for 4 h, washing the cells and finally treating the cells with Alamar Blue. After 12–24 h, the fluorescence of the reduced dye was measured. Fluorescence intensity as a function of test compound concentration was fit to the Fermi equation, using non-linear least squares regression analysis, to estimate IC50 values.

S. aureus DHFR = target: T1, S. aureus DHFR (Staphylococcus aureus, UniProt P0A017); assay: biochemical; type: biochemical
T1 construct: the DHFR gene was inserted into vector pET41 with a His8 tag for purification; His8; made in house; host or cells: E. coli BL21 (DE3)
T1 sequence (P0A017 whole entry): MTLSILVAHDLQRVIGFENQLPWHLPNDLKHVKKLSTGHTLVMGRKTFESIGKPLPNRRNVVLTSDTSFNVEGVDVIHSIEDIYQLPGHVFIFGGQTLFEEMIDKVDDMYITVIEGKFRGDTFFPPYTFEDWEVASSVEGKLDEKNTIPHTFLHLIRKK
Procedure: (§2) S. aureus DHFR was cloned, expressed and purified as previously described. Briefly, the DHFR gene was inserted into vector pET41 with a His8 tag for purification. The protein was expressed in E. coli BL21 (DE3) cells. […] The protein was concentrated to ∼5 mg/mL. S. pyogenes DHFR was cloned using PCR from genomic DNA and inserted in vector pET-41.
(§3) Enzyme inhibition assays were performed by monitoring the rate of NADPH oxidation by the DHFR enzyme at an absorbance of 340 nm over five minutes. Assays were performed in the presence of saturating concentrations of NADPH (100 µM) and initiated with dihydrofolate (1 mM). All assays were completed at 25°C in a buffer containing 20 mM TES pH 7.0, 50 mM KCl, 10 mM 2-mercaptoethanol, 0.5 mM EDTA and 1 mg/mL BSA. Inhibition was measured at least three times with inhibitor concentrations near the IC50 value and the average IC50 value is reported with a standard deviation.

S. pyogenes DHFR = S. pyogenes DHFR (Streptococcus pyogenes, UniProt Q9A091); assay: biochemical; type: biochemical; conditions: for IC50: S. pyogenes DHFR, average of at least three measurements, read-out: IC50 (nM) Sp; for Selectivity (h/Sp): IC50 (human)/IC50 (pathogen)
Chain of S. pyogenes DHFR (Q9A091 entry or part of it): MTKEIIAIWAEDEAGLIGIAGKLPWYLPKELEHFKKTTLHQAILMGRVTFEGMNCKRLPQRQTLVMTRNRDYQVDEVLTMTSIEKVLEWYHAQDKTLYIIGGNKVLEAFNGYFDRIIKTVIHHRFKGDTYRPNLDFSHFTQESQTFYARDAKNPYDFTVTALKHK
Procedure: as §2, §3

Streptococcus pyogenes = assay: MIC, broth microdilution with Alamar Blue; type: cell-based; conditions: for Selectivity S. pyogenes: IC50 (MCF10)/MIC (pathogen), both values in µM
Procedure: as §1

Human DHFR = target: T2, Human DHFR (Homo sapiens, UniProt P00374); assay: DHFR enzyme inhibition assay (NADPH oxidation, 340 nm); type: biochemical
T2 sequence (P00374 1-187): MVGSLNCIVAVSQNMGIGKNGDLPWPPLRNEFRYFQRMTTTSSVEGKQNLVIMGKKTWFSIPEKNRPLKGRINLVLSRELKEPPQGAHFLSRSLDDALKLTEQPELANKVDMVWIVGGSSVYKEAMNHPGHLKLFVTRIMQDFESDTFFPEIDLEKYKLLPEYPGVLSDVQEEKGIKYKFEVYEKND
Procedure: as §3

HepG2 cells = assay: Mammalian cell toxicity (Alamar Blue); type: cell-based; conditions: Homo sapiens, cytotoxicity, 4 h incubation
Procedure: Fetal calf serum used in these assays was lot matched throughout. All cultures were maintained under a humidified 5% CO2 atmosphere at 37°C, had media refreshed twice weekly and were subcultured by trypsinization and resuspension at a ratio of 1∶5 each week. Toxicity assays were conducted between passages 10–20. Target compound toxicity was measured by incubating the test compound with the cells for 4 h, washing the cells and finally treating the cells with Alamar Blue. After 12–24 h, the fluorescence of the reduced dye was measured. Fluorescence intensity as a function of test compound concentration was fit to the Fermi equation, using non-linear least squares regression analysis, to estimate IC50 values.

[1] = value in parentheses, read-out: MIC MRSA
[2] = S. aureus DHFR, average of at least three measurements, read-out: IC50 (nM) Sa
[3] = value in parentheses, read-out: MIC S. pyogenes
[4] = Staphylococcus aureus, MRSA, value in parentheses, read-out: MIC MRSA
[5] = Staphylococcus aureus, MRSA, read-out: MIC MRSA
[6] = Streptococcus pyogenes, value in parentheses, read-out: MIC S. pyogenes
[7] = Streptococcus pyogenes, read-out: MIC S. pyogenes
[8] = Homo sapiens, MCF10, cytotoxicity, 4 h incubation
[9] = human DHFR, average of at least three measurements, read-out: IC50 (nM) Human
[10] = 10% fetal calf serum, value in parentheses, read-out: MIC MRSA +FCS
[11] = 10% FCS, value in parentheses, read-out: MIC S. pyogenes +FCS
[12] = Staphylococcus aureus, MRSA, 10% fetal calf serum, read-out: MIC MRSA +FCS
[13] = Staphylococcus aureus, MRSA, 10% fetal calf serum, value in parentheses, read-out: MIC MRSA +FCS
[14] = Streptococcus pyogenes, 10% FCS, read-out: MIC S. pyogenes +FCS
[15] = Streptococcus pyogenes, 10% FCS, value in parentheses, read-out: MIC S. pyogenes +FCS

SMILES	MIC MRSA (MRSA (S.aureus 13709))	MIC (MRSA (S.aureus 13709); [1])	IC50 (MCF-10 cells; cytotoxicity, 4 h incubation)	IC50 (S. aureus DHFR; [2])	IC50 (S. pyogenes DHFR)	MIC S. pyogenes (Streptococcus pyogenes)	MIC (MRSA (S.aureus 13709); [4])	MIC (MRSA (S.aureus 13709); [5])	MIC (Streptococcus pyogenes; [6])	MIC (Streptococcus pyogenes; [7])	Selectivity MRSA (MRSA (S.aureus 13709))	IC50 (MCF-10 cells; [8])	IC50 (Human DHFR; [9])	Selectivity (h/Sa) (S. aureus DHFR; IC50 (human)/IC50 (pathogen))	Selectivity (h/Sp) (S. pyogenes DHFR)	Selectivity S. pyogenes (Streptococcus pyogenes)	MIC (MRSA (S.aureus 13709); [12])	MIC (MRSA (S.aureus 13709); [13])	MIC (Streptococcus pyogenes; [14])	MIC (Streptococcus pyogenes; [15])	also measured
COc1cc(-c2ccc(C)cc2)cc(C(C)C#Cc2c(C)nc(N)nc2N)c1 (racemic) [Compound 2]	0.71 µg/mL (≈ 1.91 µM)	2 µM	55000 nM	410 ± 36 nM	350 ± 44 nM	0.024 µg/mL (≈ 0.0644 µM)	–	–	–	–	–	–	–	–	–	–	–	–	–	–	MIC (Streptococcus pyogenes; [3]): 0.064 µM
COc1cc(-c2cc(C)cc(C)c2)cc(C(C)C#Cc2c(C)nc(N)nc2N)c1 (stereo not drawn) [Compound 1]	5.76 µg/mL (≈ 14.9 µM)	–	–	–	–	0.097 µg/mL (≈ 0.251 µM)	16 µM	5.8 µg/mL	0.25 µM	0.1 µg/mL	–	–	–	–	–	–	–	–	–	–	IC50 (MCF-10 cells; Homo sapiens, MCF10, 4 h): 47000 nM
CCc1nc(N)nc(N)c1C#CCc1cc(-c2ccccc2)ccc1OC [Compound 7]	–	–	–	2.4 ± 0.2 nM	–	–	1 µM	0.18 µg/mL	0.016 µM	0.006 µg/mL	67	67000 nM	300 ± 10 nM	125	51	4,187	–	–	–	–	fold improvement in potency against S. aureus DHFR (S. aureus DHFR; relative to compound 1): 18 fold
CCc1nc(N)nc(N)c1C#CCc1cccc(-c2ccccc2)c1 [Compound 8]	0.66 µg/mL (≈ 2.01 µM)	2 µM	32000 nM	28 ± 1.7 nM	26 ± 1.7 nM	0.66 µg/mL (≈ 2.01 µM)	–	–	–	–	–	–	290 ± 36 nM	10	11	–	–	–	–	–	MIC MRSA +FCS (MRSA (S.aureus 13709); 10% fetal calf serum): 5.2 µg/mL (≈ 15.8 µM); MIC (MRSA (S.aureus 13709); [10]): 16 µM; MIC S. pyogenes +FCS (Streptococcus pyogenes; 10% FCS): 2.6 µg/mL (≈ 7.92 µM); MIC (Streptococcus pyogenes; [11]): 8 µM; MIC (Streptococcus pyogenes; [3]): 2 µM
CCc1nc(N)nc(N)c1C#CCc1cc(OC)cc(-c2ccccc2)c1 [Compound 9]	0.18 µg/mL (≈ 0.502 µM)	0.5 µM	199000 nM	59 ± 2.3 nM	52 ± 1.7 nM	0.18 µg/mL (≈ 0.502 µM)	–	–	–	–	–	–	140 ± 1 nM	2.4	3	–	–	–	–	–	MIC MRSA +FCS (MRSA (S.aureus 13709); 10% fetal calf serum): 1.4 µg/mL (≈ 3.91 µM); MIC (MRSA (S.aureus 13709); [10]): 4 µM; MIC S. pyogenes +FCS (Streptococcus pyogenes; 10% FCS): 0.72 µg/mL (≈ 2.01 µM); MIC (Streptococcus pyogenes; [11]): 2 µM; MIC (Streptococcus pyogenes; [3]): 0.5 µM
COc1ccc(-c2ccccc2)cc1C(C)C#Cc1c(C)nc(N)nc1N (stereo not drawn) [Compound 10]	–	–	–	75 ± 4 nM	–	–	2 µM	0.72 µg/mL	0.5 µM	0.18 µg/mL	19	38000 nM	97 ± 10 nM	–	4	76	11.4 µg/mL	32 µM	5.7 µg/mL	16 µM	IC50 (HepG2 cells): 94000 nM; Selectivity (h/Sa) (S. aureus DHFR): 1.3
CCc1nc(N)nc(N)c1C#CC(C)c1cc(-c2ccccc2)ccc1OC (stereo not drawn) [Compound 11]	–	–	–	67 ± 5.5 nM	–	–	2 µM	0.74 µg/mL	2 µM	0.74 µg/mL	27	54000 nM	100 ± 10 nM	1.5	4	27	11.9 µg/mL	32 µM	6 µg/mL	16 µM	IC50 (HepG2 cells): 77000 nM
COc1cc(C(C)C#Cc2c(C)nc(N)nc2N)cc(N2CCOCC2)c1 (stereo not drawn) [Compound 31]	–	–	–	29 ± 2 nM	–	–	4 µM	1.5 µg/mL	8 µM	2.94 µg/mL	116	462000 nM	400 ± 40 nM	14	15	58	2.94 µg/mL	8 µM	2.94 µg/mL	8 µM	IC50 (HepG2 cells): 494000 nM
CCc1nc(N)nc(N)c1C#CCc1cccc(-c2cncnc2)c1 [Compound 37]	–	–	–	–	–	–	0.5 µM	0.16 µg/mL	0.5 µM	0.16 µg/mL	>1,000	> 500000 nM	–	5	7	>1,000	0.16 µg/mL	0.5 µM	0.16 µg/mL	0.5 µM	IC50 (Human DHFR): 160 ± 13 nM; IC50 (S. aureus DHFR): 35 ± 1.1 nM
